Assay results as given in ChEMBL document CHEMBL1201862, “PubChem BioAssay data set” (2004).
pIC50: −log10 of the molar value. Active and inactive are the calls of the source.

Assays:
[1] = target: Voltage-dependent T-type calcium channel subunit alpha-1H (Homo sapiens, UniProt O95180); assay: human CACNA1H calcium influx blockade – cell-based, synthetic library set 1, calcium flux (AID 493022); assay type: functional
[2] = target: Melanin-concentrating hormone receptor 1 (Homo sapiens, UniProt Q99705); assay: Late-stage fluorescence-based counterscreen for antagonists of the G-protein coupled receptor 7 (GPR7): cell-based dose response assay to identify antagonists of the melanin-concentrating hormone receptor 1 (MCHR1). [Related pubchem assays (depositor defined):AID1861, AID1880, AID1952, AID2148, AID2251, AID2257, AID485339]; assay type: functional;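 further: stimulated with 30 nM MCH peptide agonist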
Chain of Melanin-concentrating hormone receptor 1 (Q99705 whole entry): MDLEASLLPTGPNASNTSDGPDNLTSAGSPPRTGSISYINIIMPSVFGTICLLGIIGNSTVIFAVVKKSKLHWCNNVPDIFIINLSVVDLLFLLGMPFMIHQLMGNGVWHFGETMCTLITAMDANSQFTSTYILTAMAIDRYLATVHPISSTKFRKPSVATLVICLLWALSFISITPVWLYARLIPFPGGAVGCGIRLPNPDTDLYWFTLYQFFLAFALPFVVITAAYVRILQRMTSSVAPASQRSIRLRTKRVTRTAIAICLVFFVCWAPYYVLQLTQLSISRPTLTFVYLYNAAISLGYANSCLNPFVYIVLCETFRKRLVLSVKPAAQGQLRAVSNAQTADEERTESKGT

[3] = target: T1, Neuropeptides B/W receptor type 1 (Homo sapiens, UniProt P48145); assay: human NPBW1 receptor blockade, IC50 – cell-based, fluorescence, dose response, late-stage follow-up (AID 463251); assay type: functional
T1 sequence (P48145 whole entry): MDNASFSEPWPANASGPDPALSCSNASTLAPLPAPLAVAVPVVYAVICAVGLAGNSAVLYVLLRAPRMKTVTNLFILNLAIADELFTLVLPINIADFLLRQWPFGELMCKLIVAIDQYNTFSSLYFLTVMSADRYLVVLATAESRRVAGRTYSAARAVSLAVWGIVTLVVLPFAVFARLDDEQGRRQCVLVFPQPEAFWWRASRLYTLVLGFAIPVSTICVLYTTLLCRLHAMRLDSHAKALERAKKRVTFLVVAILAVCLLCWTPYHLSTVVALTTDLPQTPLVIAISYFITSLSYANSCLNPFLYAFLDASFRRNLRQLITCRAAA

[4] = viability loss in THP-1 monocytes – THP-1 cells, cytotoxicity control for Vif-APOBEC3G degradation inhibitor project, dose response (AID 1117359); assay type: functional; details: THP-1
[5] = target: T2, Beta-galactosidase (Escherichia coli, UniProt Q8VNN2); assay: PubChem AID 485352; assay type: functional
T2 sequence (Q8VNN2 whole entry): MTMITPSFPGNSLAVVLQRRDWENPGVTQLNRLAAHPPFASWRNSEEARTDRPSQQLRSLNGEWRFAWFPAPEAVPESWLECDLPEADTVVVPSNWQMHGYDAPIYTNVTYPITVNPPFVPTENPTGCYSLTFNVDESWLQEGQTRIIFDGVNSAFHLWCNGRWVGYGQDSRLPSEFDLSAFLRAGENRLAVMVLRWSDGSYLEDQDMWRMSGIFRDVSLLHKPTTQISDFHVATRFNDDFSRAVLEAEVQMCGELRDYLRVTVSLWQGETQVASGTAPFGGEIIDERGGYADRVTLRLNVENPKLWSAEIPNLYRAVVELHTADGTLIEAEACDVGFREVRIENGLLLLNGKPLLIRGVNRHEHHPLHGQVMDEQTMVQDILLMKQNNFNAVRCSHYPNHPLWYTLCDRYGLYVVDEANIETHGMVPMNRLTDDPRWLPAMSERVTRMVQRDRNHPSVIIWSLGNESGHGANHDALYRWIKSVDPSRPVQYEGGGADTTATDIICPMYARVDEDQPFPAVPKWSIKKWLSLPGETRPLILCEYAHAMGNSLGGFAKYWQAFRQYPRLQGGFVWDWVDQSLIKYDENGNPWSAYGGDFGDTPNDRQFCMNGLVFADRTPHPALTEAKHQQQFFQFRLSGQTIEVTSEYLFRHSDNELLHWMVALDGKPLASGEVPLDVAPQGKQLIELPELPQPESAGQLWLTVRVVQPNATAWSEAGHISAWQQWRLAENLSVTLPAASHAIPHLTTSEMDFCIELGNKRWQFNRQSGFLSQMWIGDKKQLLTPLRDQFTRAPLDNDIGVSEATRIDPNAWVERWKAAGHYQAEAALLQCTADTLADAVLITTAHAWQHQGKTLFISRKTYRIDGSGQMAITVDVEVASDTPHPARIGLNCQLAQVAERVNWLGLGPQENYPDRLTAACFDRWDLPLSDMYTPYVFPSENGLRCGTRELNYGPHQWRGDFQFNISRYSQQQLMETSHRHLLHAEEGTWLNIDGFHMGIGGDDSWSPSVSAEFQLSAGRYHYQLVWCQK

[6] = Vero E6 cell cytotoxicity, dose response, cytotoxicity control for non-replicating M. tuberculosis project, secondary assay (AID 492998); assay type: functional, VeroE6; details: Vero C1008
[7] = target: T3, Kappa-type opioid receptor (Homo sapiens, UniProt P41145); assay type: functional
T3 sequence (P41145 whole entry): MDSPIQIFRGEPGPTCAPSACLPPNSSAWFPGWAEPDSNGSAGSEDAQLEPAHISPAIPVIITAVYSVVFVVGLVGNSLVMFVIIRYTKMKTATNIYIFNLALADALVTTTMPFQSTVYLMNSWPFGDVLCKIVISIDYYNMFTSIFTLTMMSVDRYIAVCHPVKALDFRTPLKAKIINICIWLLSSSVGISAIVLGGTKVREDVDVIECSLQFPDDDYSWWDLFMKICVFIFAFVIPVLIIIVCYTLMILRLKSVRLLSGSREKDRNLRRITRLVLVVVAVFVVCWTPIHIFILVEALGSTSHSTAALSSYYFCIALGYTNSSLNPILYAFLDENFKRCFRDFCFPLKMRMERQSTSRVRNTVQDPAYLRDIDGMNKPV

[8] = target: T4, Type-1 angiotensin II receptor (Homo sapiens, UniProt P30556); assay: antagonism of angiotensin II type 1 receptor – cell-based, uHTS hits, selectivity assay for APJ receptor antagonist project, dose response (AID 463214); assay type: functional;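 further: antagonist potency against angiotensin II stimulated AT1 response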
T4 sequence (P30556 whole entry): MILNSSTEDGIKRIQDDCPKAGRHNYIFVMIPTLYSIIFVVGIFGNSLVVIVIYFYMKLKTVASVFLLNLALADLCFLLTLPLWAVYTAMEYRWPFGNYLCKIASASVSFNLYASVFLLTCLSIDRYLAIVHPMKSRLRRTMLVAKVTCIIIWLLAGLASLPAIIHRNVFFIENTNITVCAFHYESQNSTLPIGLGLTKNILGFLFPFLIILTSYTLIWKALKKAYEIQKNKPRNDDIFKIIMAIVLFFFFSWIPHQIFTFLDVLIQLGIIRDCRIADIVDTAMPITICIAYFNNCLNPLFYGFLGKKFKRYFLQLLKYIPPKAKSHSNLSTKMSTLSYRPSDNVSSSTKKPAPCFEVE

[9] = target: T2, Beta-galactosidase; assay type: functional
[10] = target: Nonstructural protein 1 (Influenza A virus, UniProt Q194T2); assay type: functional, Influenza A virus (A/California/07/2009(H1N1))
Chain of Nonstructural protein 1 (Q194T2 whole entry): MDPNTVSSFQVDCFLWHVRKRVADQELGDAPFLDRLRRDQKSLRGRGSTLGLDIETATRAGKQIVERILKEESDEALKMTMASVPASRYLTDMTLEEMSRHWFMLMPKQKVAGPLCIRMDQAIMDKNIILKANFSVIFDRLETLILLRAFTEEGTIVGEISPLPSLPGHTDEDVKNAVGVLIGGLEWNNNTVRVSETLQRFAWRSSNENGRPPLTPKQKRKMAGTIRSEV

[11] = target: T5, Microphthalmia-associated transcription factor (Homo sapiens, UniProt O75030); assay: reducers of TRPM1 reporter luminescence, concentration series – cell-based, SK-MEL-5, cherry-picked, set 3, MITF inhibitor project, dose response (AID 493073); assay type: functional;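 further: SK-MEL-5 melanoma cells with luciferase driven by the MITF target TRPM1 promoter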
T5 sequence (O75030 whole entry): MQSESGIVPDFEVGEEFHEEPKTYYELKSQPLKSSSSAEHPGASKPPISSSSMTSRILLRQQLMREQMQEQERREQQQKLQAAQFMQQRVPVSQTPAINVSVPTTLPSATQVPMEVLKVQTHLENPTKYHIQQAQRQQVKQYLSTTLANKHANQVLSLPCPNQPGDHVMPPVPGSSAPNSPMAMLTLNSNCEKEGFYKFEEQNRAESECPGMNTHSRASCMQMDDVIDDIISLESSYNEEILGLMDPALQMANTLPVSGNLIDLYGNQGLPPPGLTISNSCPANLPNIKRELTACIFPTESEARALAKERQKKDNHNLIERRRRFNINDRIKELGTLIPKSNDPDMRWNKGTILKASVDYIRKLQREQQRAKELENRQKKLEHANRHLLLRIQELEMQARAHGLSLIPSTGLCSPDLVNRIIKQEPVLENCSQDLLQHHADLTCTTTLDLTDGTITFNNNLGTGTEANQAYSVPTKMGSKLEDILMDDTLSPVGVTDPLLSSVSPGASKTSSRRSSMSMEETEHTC

[12] = target: T3, Kappa-type opioid receptor; assay type: functional; remark: listed apart in the source
[13] = cells; assay type: functional
[14] = test system: INS1; assay: INS-1E survival protection against cytokine death – cell-based, luminescence, retest, dose response (AID 449756); assay type: functional; details: Rattus norvegicus;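 further: cell death triggered by IL-1 beta plus TNF-alpha plus IFN-gamma mixture; protective hits raise ATP signal compared with cytokine alone wells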
[15] = HepG2 cell cytotoxicity, dose response, cytotoxicity control for non-replicating M. tuberculosis project (AID 489018); assay type: functional; details: Mycobacterium tuberculosis
[16] = THP-1 cell cytotoxicity, dose response, cytotoxicity control for non-replicating M. tuberculosis project (AID 489025); assay type: functional

Chain of Voltage-dependent T-type calcium channel subunit alpha-1H (O95180 whole entry): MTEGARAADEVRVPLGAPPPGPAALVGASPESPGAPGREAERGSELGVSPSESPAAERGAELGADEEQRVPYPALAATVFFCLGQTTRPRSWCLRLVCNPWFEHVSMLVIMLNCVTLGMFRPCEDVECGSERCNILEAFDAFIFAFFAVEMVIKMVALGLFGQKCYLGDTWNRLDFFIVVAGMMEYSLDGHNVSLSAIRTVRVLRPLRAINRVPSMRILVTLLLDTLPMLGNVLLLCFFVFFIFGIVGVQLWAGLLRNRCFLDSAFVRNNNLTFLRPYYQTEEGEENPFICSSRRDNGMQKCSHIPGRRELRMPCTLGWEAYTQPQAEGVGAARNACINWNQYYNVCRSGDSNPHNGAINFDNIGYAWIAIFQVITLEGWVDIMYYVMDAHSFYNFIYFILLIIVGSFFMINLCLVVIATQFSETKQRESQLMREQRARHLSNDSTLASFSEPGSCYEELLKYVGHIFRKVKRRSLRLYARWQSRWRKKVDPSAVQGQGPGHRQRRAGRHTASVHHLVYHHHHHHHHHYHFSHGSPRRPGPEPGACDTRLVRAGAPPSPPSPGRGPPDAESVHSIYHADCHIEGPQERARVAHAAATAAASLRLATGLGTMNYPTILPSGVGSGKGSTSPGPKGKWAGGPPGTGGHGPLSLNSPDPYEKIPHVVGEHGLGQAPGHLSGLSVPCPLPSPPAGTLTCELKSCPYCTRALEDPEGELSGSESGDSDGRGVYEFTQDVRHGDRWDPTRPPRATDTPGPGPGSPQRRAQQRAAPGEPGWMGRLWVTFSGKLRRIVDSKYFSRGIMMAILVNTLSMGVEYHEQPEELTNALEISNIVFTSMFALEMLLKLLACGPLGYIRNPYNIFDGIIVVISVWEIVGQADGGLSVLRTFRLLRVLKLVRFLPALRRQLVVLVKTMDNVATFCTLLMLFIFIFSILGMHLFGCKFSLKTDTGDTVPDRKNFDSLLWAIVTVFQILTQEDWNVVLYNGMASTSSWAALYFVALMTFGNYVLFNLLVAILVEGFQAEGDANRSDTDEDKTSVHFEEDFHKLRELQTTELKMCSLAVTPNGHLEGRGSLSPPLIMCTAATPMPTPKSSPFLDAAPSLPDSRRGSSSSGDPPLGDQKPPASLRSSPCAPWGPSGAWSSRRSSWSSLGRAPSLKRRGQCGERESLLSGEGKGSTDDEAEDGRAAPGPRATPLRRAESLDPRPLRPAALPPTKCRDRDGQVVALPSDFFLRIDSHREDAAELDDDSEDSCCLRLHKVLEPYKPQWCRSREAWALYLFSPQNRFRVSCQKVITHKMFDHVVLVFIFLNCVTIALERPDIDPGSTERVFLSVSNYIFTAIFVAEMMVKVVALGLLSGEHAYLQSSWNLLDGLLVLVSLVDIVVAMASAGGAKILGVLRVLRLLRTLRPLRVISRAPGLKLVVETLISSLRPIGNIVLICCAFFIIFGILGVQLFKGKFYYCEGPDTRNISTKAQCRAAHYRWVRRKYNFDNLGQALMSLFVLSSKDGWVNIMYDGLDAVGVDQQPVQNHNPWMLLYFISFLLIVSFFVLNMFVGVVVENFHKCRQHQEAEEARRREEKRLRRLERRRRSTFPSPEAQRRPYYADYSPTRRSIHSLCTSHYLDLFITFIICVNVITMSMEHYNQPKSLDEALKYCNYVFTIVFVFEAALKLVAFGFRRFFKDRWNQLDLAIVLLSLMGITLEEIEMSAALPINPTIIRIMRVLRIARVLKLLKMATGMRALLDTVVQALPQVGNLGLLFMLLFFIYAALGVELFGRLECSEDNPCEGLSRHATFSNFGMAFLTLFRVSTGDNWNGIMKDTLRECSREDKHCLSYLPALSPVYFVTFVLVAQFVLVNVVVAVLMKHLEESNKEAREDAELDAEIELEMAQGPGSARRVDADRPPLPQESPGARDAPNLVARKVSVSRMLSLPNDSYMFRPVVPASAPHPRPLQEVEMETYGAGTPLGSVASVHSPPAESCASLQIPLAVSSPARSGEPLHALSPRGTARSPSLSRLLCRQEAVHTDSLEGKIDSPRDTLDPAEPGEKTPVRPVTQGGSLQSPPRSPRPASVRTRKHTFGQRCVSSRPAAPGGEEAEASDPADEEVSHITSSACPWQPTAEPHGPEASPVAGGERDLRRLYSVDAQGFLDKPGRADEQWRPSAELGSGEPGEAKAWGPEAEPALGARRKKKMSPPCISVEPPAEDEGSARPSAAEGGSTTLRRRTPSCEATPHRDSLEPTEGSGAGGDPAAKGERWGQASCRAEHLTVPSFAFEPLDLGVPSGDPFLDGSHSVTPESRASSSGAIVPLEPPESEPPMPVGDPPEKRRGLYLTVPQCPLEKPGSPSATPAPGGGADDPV

With `O=C(COc1ccccc1Cl)Nc1nnc(-c2ccc3c(c2)CCCC3)o1` the EC50 [1] was 10 µM (active).
In the case of `COc1ccc(Oc2c(Cl)cnn(-c3cc(C(F)(F)F)cc(C(F)(F)F)c3)c2=O)cc1`, the IC50 [2] was 1.5 µM (active) and the IC50 [3] was 1.2 µM (active).
For `C/C(=N\NC(=O)C(C)Oc1ccc([N+](=O)[O-])cc1)c1ccccn1` (stereo unspecified), the CC50 [4] was 1.8 µM (active), the EC50 [5] was > 40 µM (inactive) and the CC50 [6] was 3.54 µM (active). The pIC50 [7] was < 4.49, the IC50 [8] was 9.48 µM (active) and the EC50 [9] was > 31.5 µM (inactive). For the same compound, the IC50 [10] was 6.88 µM (active), the AC50 [11] was 2.38 µM (active) and the IC50 [12] was 3.19 µM (active). For the same compound, the IC50 [13] was 6.28 µM (active), the AC50 [14] was 1.12 µM (active) and the CC50 [15] was 8.26 µM (active). For the same compound, the CC50 [16] was 1.54 µM (active).
